According to patent publication US12084458B2, “Substituted pyridines, pyridazines, and pyrimidines as TYK2 inhibitors” (Sudo Biosciences Limited, priority 2021, dated 2024):

Experiments:
[1] = tested on: HEK-Blue IL-23 cells (IL-23-stimulated STAT3 SEAP reporter; TYK2 JH2); test: HEK-Blue IL-23 SEAP reporter assay for profiling TYK2 pseudokinase (JH2) inhibition; assay type: cell-based; settings: 10 ng/mL human recombinant IL-23, SEAP reporter, read-out: IL23 (TYK2 inhibitory activity, IC50)
Experimental: (§1) Example B-1: HEK-Blue™ IL-23 and IFNα/β Reporter Assays for Profiling TYK2 Pseudokinase (JH2) Inhibition
(§2) HEK-Blue™ IL-23 and IFNα/β cells with a stably-integrated cytokine receptor and STAT3 or STAT1 express STAT-inducible secreted embryonic alkaline phosphatase (SEAP) reporter gene upon cytokine stimulation. These cells are plated in DMEM (Gibco) containing 10% heat-inactivated FBS (Gibco) and 100 U/mL PenStrep (Gibco) at 37° C. under 5% CO2 conditions for 20-22 hours. The cells are then pretreated with serially diluted test compounds for 60 min prior to stimulation with either 10 ng/mL human recombinant IL-23 (Miltenyl Biotech) or 1 ng/mL human recombinant IFNα (InvivoGen) for 22-24 hours for IL-23 or 16-18 h for IFNα. SEAP induction is measured using the QUANTI Blue™ Solution (InvivoGen) according to the manufacturer's instructions.

[2] = tested on: HEK-Blue IFNα/β cells (IFNα-stimulated STAT1 SEAP reporter; TYK2 JH2); test: HEK-Blue IFNα/β SEAP reporter assay for profiling TYK2 pseudokinase (JH2) inhibition; assay type: cell-based; set-up: IFNα (TYK2 inhibitory activity, IC50): scale not given here; settings: 1 ng/mL human recombinant IFNα; for IC50: Homo sapiens, HEK-Blue, read-out: IFNα (TYK2 inhibitory activity, IC50)
Experimental: as §1, §2

[2H]C([2H])([2H])NC(=O)c1nnc(NC(=O)C2CC2)cc1Nc1cccc2c1N(C)[C@H](C)c1nc(C)nn1-2 (single isomer, unassigned) [Compound 23]
IC50 [1]: < 30 nM | IC50 [2]: 30 to 300 nM

[2H]C([2H])([2H])NC(=O)c1cnc(NC(=O)C2CC2)cc1Nc1cccc2c1N(C)[C@H](C)c1nc(C)nn1-2 (single isomer, unassigned) [Compound 24]
IC50 [1]: < 30 nM | IC50 [2]: 30 to 300 nM

[2H]C([2H])([2H])NC(=O)c1cnc(NC(=O)C2CC2)cc1Nc1cccc2c1N(C)[C@H](C)c1nn(C)nc1-2 (single isomer, unassigned) [Compound 58]
IC50 [1]: < 30 nM | IC50 [2]: 300 to 1000 nM

[2H]C([2H])([2H])NC(=O)c1nnc(NC(=O)C2CC2)cc1Nc1cccc2c1N(C)[C@H](C)c1nn(C)nc1-2 (single isomer, unassigned) [Compound 59]
IC50 [1]: < 30 nM | IC50 [2]: 30 to 300 nM

[2H]C([2H])([2H])NC(=O)c1nnc(NC(=O)NC)cc1Nc1cccc2c1N(C)[C@H](C)c1nn(C)nc1-2 (single isomer, unassigned) [Compound 61]
IC50 [1]: 30 to 300 nM | IC50 [2]: 300 to 1000 nM

[2H]C([2H])([2H])NC(=O)c1nnc(NC(=O)NC)cc1Nc1nccc2c1N(C)[C@H](C)c1nn(C)nc1-2 (single isomer, unassigned) [Compound 99]
IC50 [1]: 30 to 300 nM | IC50 [2]: 30 to 300 nM

[2H]C([2H])([2H])NC(=O)c1cnc(NC(=O)C2CC2)cc1Nc1cc(F)cc2c1N(C)[C@H](C)c1nc(C)nn1-2 (single isomer, unassigned) [Compound 106]
IC50 [1]: 30 to 300 nM | IC50 [2]: > 1000 nM

[2H]C([2H])([2H])NC(=O)c1nnc(NC(=O)C2CC2)cc1Nc1cc(F)cc2c1N(C)[C@H](C)c1nc(C)nn1-2 (single isomer, unassigned) [Compound 109]
IC50 [1]: 30 to 300 nM | IC50 [2]: 300 to 1000 nM

CNC(=O)c1nnc(Nc2ccc(F)cn2)cc1Nc1cccc2c1OCc1nc(C)nn1-2 [Compound 2, 6-((5-fluoropyridin-2-yl)amino)-N-methyl-4-((2-methyl-4H-benzo[b][1,2,4]triazolo[1,5-d][1,4]oxazin-6-yl)amino)pyridazine-3-carboxamide]
IC50 [1]: > 1000 nM | IC50 [2]: > 1000 nM

CNC(=O)c1nnc(NC(=O)C2CC2)cc1Nc1cccc2c1OCc1nc(CO)nn1-2 [Compound 3, 6-(cyclopropanecarboxamido)-4-((2-(hydroxymethyl)-4H-benzo[b][1,2,4]triazolo[1,5-d][1,4]oxazin-6-yl)amino)-N-methylpyridazine-3-carboxamide]
IC50 [1]: > 1000 nM | IC50 [2]: > 1000 nM

[2H]C([2H])([2H])NC(=O)c1nnc(NC(=O)CN2CCOCC2)cc1Nc1cccc2c1N(C)Cc1nc(C)nn1-2 [Compound 9, 4-((2,5-dimethyl-4,5-dihydro-[1,2,4]triazolo[1,5-a]quinoxalin-6-yl)amino)-N-(methyl-d3)-6-(2-morpholinoacetamido)pyridazine-3-carboxamide]
IC50 [1]: 30 to 300 nM | IFNα (TYK2 inhibitory activity, IC50) [2]: C/D

[2H]C([2H])([2H])NC(=O)c1nnc(NC(=O)CN(C)C)cc1Nc1cccc2c1N(C)Cc1nc(C)nn1-2 [Compound 14, 4-((2,5-dimethyl-4,5-dihydro-[1,2,4]triazolo[1,5-a]quinoxalin-6-yl)amino)-6-(2-(dimethylamino)acetamido)-N-(methyl-d3)pyridazine-3-carboxamide]
IC50 [1]: 30 to 300 nM | IC50 [2]: 300 to 1000 nM

[2H]C([2H])([2H])NC(=O)c1nnc(Nc2cc(C)cc(C)c2)cc1Nc1cccc2c1N(C)Cc1nc(C)nn1-2 [Compound 16, 4-((2,5-dimethyl-4,5-dihydro-[1,2,4]triazolo[1,5-a]quinoxalin-6-yl)amino)-6-((3,5-dimethylphenyl)amino)-N-(methyl-d3)pyridazine-3-carboxamide]
IC50 [1]: 30 to 300 nM | IFNα (TYK2 inhibitory activity, IC50) [2]: C/D

[2H]C([2H])([2H])NC(=O)c1nnc(NC(=O)C(C)C)cc1Nc1cccc2c1N(C)Cc1nc(C)nn1-2 [Compound 17, 4-((2,5-dimethyl-4,5-dihydro-[1,2,4]triazolo[1,5-a]quinoxalin-6-yl)amino)-6-isobutyramido-N-(methyl-d3)pyridazine-3-carboxamide]
IC50 [1]: 30 to 300 nM | IC50 [2]: 300 to 1000 nM

[2H]C([2H])([2H])NC(=O)c1nnc(NC(=O)CC(F)(F)F)cc1Nc1cccc2c1N(C)Cc1nc(C)nn1-2 [Compound 18, 4-((2,5-dimethyl-4,5-dihydro-[1,2,4]triazolo[1,5-a]quinoxalin-6-yl)amino)-N-(methyl-d3)-6-(3,3,3-trifluoropropanamido)pyridazine-3-carboxamide]
IC50 [1]: 30 to 300 nM | IC50 [2]: 300 to 1000 nM

[2H]C([2H])([2H])NC(=O)c1nnc(NC(=O)N(C)C)cc1Nc1cccc2c1N(C)Cc1nc(C)nn1-2 [Compound 20, 4-((2,5-dimethyl-4,5-dihydro-[1,2,4]triazolo[1,5-a]quinoxalin-6-yl)amino)-6-(3,3-dimethylureido)-N-(methyl-d3)pyridazine-3-carboxamide]
IC50 [1]: 30 to 300 nM | IC50 [2]: > 1000 nM

[2H]C([2H])([2H])NC(=O)c1cnc(NC(=O)C2CC2)nc1Nc1cccc2c1N(C)Cc1nc(C)nn1-2 [Compound 21, 2-(cyclopropanecarboxamido)-4-((2,5-dimethyl-4,5-dihydro-[1,2,4]triazolo[1,5-a]quinoxalin-6-yl)amino)-N-(methyl-d3)pyrimidine-5-carboxamide]
IC50 [1]: 30 to 300 nM | IC50 [2]: 30 to 300 nM

[2H]C([2H])([2H])NC(=O)c1nnc(NC(=O)C2(F)CC2)cc1Nc1cccc2c1N(C)Cc1nc(C)nn1-2 [Compound 37, 4-((2,5-dimethyl-4,5-dihydro-[1,2,4]triazolo[1,5-a]quinoxalin-6-yl)amino)-6-(1-fluorocyclopropane-1-carboxamido)-N-(methyl-d3)pyridazine-3-carboxamide]
IC50 [1]: 30 to 300 nM | IC50 [2]: > 1000 nM

[2H]C([2H])([2H])NC(=O)c1nnc(NS(=O)(=O)C2CC2)cc1Nc1cccc2c1N(C)Cc1nc(C)nn1-2 [Compound 38, 6-(cyclopropanesulfonamido)-4-((2,5-dimethyl-4,5-dihydro-[1,2,4]triazolo[1,5-a]quinoxalin-6-yl)amino)-N-(methyl-d3)pyridazine-3-carboxamide]
IC50 [1]: > 1000 nM | IC50 [2]: > 1000 nM

[2H]C([2H])([2H])NC(=O)c1nnc(NC(=O)[C@@H]2CC2(F)F)cc1Nc1cccc2c1N(C)Cc1nc(C)nn1-2 [Compound 41, (S)-6-(2,2-difluorocyclopropane-1-carboxamido)-4-((2,5-dimethyl-4,5-dihydro-[1,2,4]triazolo[1,5-a]quinoxalin-6-yl)amino)-N-(methyl-d3)pyridazine-3-carboxamide]
IC50 [1]: 30 to 300 nM | IC50 [2]: 30 to 300 nM

[2H]C([2H])([2H])NC(=O)c1nnc(NC(=O)[C@H]2CC2(F)F)cc1Nc1cccc2c1N(C)Cc1nc(C)nn1-2 [Compound 42, (R)-6-(2,2-difluorocyclopropane-1-carboxamido)-4-((2,5-dimethyl-4,5-dihydro-[1,2,4]triazolo[1,5-a]quinoxalin-6-yl)amino)-N-(methyl-d3)pyridazine-3-carboxamide]
IC50 [1]: 30 to 300 nM | IC50 [2]: 30 to 300 nM

[2H]C([2H])([2H])NC(=O)c1nnc(NC(=O)C2CC2)cc1Nc1cccc2c1N(C)[C@@H](C([2H])([2H])[2H])c1nc(C)nn1-2 [Compound 43, (S)-6-(cyclopropanecarboxamido)-4-((2,5-dimethyl-4-(methyl-d3)-4,5-dihydro-[1,2,4]triazolo[1,5-a]quinoxalin-6-yl)amino)-N-(methyl-d3)pyridazine-3-carboxamide]
IC50 [1]: 30 to 300 nM | IC50 [2]: 300 to 1000 nM

[2H]C([2H])([2H])NC(=O)c1cnc(NC(=O)C2CC2)c(F)c1Nc1cccc2c1N(C)Cc1nn(C)nc1-2 [Compound 65, 6-(cyclopropanecarboxamido)-4-((2,5-dimethyl-4,5-dihydro-2H-[1,2,3]triazolo[4,5-c]quinolin-6-yl)amino)-5-fluoro-N-(methyl-d3)nicotinamide]
IC50 [1]: 300 to 1000 nM | IFNα (TYK2 inhibitory activity, IC50) [2]: C/D

CNC(=O)c1nnc(Nc2ccc(F)cn2)cc1Nc1cccc2c1OCCCn1cnnc1-2 [Compound 74, 4-((6,7-dihydro-5H-benzo[b][1,2,4]triazolo[3,4-d][1,5]oxazocin-9-yl)amino)-6-((5-fluoropyridin-2-yl)amino)-N-methylpyridazine-3-carboxamide]
IC50 [1]: > 1000 nM | IC50 [2]: > 1000 nM

CNC(=O)c1nnc(NC(=O)C2CC2)cc1Nc1cccc2c1OCCCn1cnnc1-2 [Compound 75, 6-(cyclopropanecarboxamido)-4-((6,7-dihydro-5H-benzo[b][1,2,4]triazolo[3,4-d][1,5]oxazocin-9-yl)amino)-N-methylpyridazine-3-carboxamide]
IC50 [1]: > 1000 nM | IC50 [2]: > 1000 nM

[2H]C([2H])([2H])NC(=O)c1nnc(N2CCN(C(C)C)C2=O)cc1Nc1cccc2c1N(C)Cc1nc(C)nn1-2 [Compound 81, 4-((2,5-dimethyl-4,5-dihydro-[1,2,4]triazolo[1,5-a]quinoxalin-6-yl)amino)-6-(3-isopropyl-2-oxoimidazolidin-1-yl)-N-(methyl-d3)pyridazine-3-carboxamide]
IC50 [1]: 30 to 300 nM | IFNα (TYK2 inhibitory activity, IC50) [2]: C/D
